Seven compounds from patent publication US20200030355A1, “COMBINATION THERAPY FOR TREATING CANCER” (Epizyme, Inc., priority 2014, published 2020) can be followed below.

The test system of one assay is OCI-AML-4 (MLL-ENL). Put plainly: EPZ-5676 7-day pre-treatment, then second compound 72 hours, growth inhibition GI100 shift; primary screen and retest (Example 7). The class given is cell-based. The note with it: 300 nM EPZ-5676 7-day pre-treatment, second compound 72 hours; for Combination with EPZ-5676, OCI-AML-4 (MLL-ENL) Retest: Cell Titer Glo. As to the method:
(§1) Cells were then equilibrated in incubators for 24 hours before treatment with a second compound. Treated assay plates were incubated with a second compound for 72 hours. After this time, plates were developed for endpoint analysis using ATPLite to measure ATP content, which is used as an indicator of cell viability.
(§2) Cells were then treated with a second compound for 72 hours. After this time, plates were developed for endpoint analysis using Cell Titer Glo to measure ATP content, which is used as an indicator of cell viability.
(§3) “N/D” means the GI100 of the second compound could not be determined for both conditions and “-” means not tested.
(§4) Growth Inhibition (GI) as a measure of cell viability: The cell viability of vehicle was measured at the time of dosing the second agent (T0) and after seventy-two hours (T72). […] A GI 200% represents complete death of all cells in the culture well. Compounds reaching an activity plateau of GI 200% are considered cytotoxic. GI is calculated by applying the following test and equation: […]
(§5) where T is the signal measure for a test article, V is the vehicle-treated control measure, and V0 is the vehicle control measure at time zero.
A general note: Cellular ATP, detected with luciferase, serves as a proxy for viable cell number.

For assay [1], the system named is MOLM-13 (MLL-AF9). Described as above. The class given is cell-based, human. Particulars: second compound 72 hours; for Combination with EPZ-5676, MOLM-13 (MLL-AF9) Retest: 150 nM EPZ-5676 7-day pre-treatment, Cell Titer Glo; for Combination with EPZ-5676, MOLM-13 (MLL-AF9) Primary screen: 300 nM EPZ-5676 7-day pre-treatment, ATPLite. As to the method: as §1, §2, §3, §4, §5

The test system of the next assay is SKM-1 (non-MLLr). Described as above. It is filed as cell-based, human. Particulars: 300 nM EPZ-5676 7-day pre-treatment; for Combination with EPZ-5676, SKM-1 (non-MLLr) Retest: Cell Titer Glo. The method, then:
as §1, §2, §3, §4, §5

Another assay has as its system MOLM-13 cells. Put plainly: EPZ-5676 300 nM 7-day pre-treatment, then second compound 72 hours, ATPLite, IC50 shift (Example 6). It is filed as cell-based, human. Particulars: 300 nM EPZ-5676 or DMSO 7-day pre-treatment, then 2nd compound 72 hours, Synergy = IC50 of 2nd compound decreased by 2-fold or more vs DMSO control. As to the method: as §1
(§6) “N/D” means that IC50 of the second compound could not be determined for both conditions.

The next assay deals with SKM-1 cells. The assay is described as above. It is filed as cell-based, human. Particulars: SKM-1 cells; 300 nM EPZ-5676 or DMSO 7-day pre-treatment, then 2nd compound 72 hours, ATPLite; Synergy = IC50 of 2nd compound decreased by 2-fold or more vs DMSO control. The method, then: as §1, §6
Assay [2] concerns MOLM-13 (MLL-AF9). Put plainly: Combination proliferation study with Compound A2 (ATP/CellTiter-Glo, Chou-Talalay combination index). The class given is cell-based, human. Particulars: 7 Day Cotreatment Model, Table 5. As to the method:
The acute myelogenous leukemia cell lines MV4-11 (MLL-AF4) and MOLM-13 (MLL-AF9) were obtained from American Type Culture Collection (ATCC; Rockville, Md.) and Deutsche Sammlung von Mikroorganismen and Zellkulturen (DSMZ; Braunschweig, Germany) respectively.
Studies were performed using MLL-rearranged cell lines in vitro to evaluate the anti-proliferative effect of a combination of two agents together on cell growth. Initial proliferation studies were performed to determine the IC50 of a given compound in each cell line. The cell counts were measured by ATP quantitation using the Promega Cell Titer Glo kit and luminescence values corresponded to the amount of ATP in a given well.
Compounds were evaluated for synergy in the co-treatment phase by testing the compounds in a concentration range which was bracketed around their IC50 values. The compounds were plated to a 96 well plate in a matrix format (FIG. 3) which includes increasing concentrations of each drug in the combination in a constant ratio, in addition to the effect of each compound alone in the study. Cells were seeded and grown in the log-linear phase for 3 or 7 days in the co-treatment phase. Minimum inhibition (DMSO alone) controls were used in each plate to calculate fraction affected (Fa) of a test well. DMSO concentration was kept at 0.1% v/v.
The drug combination analysis was performed utilizing the Chou-Talalay method Synergy was determined using the software package Calcusyn by Biosoft. The combination index (CI) is a quantitative term used to describe the level of synergy or antagonism in a given test system. A combination index less than one indicates synergy, and a CI greater than one indicates antagonism. Further, strong synergism is achieved when the CI value falls below 0.3.
Graphs representing values of combination index (CI) versus Fractional effect (Fa) known as Fa-CI plots were generated and synergy was evaluated. Drug synergy was statistically defined by CI values less than 1, antagonism by CI>1 and additive effect by CI equal to 1.
Graphs representing values of combination index (CI) versus Fractional effect (Fa) known as Fa-CI plots were generated and synergy was evaluated. Drug synergy was statistically defined by CI values less than 1, antagonism by CI>1 and additive effect by CI equal to 1. […]
Cell viability was measured via ATP content using CellTiter-Glo® (Promega).
Proliferation studies were performed using MOLM-13, MV4-11 and SKM-1 cell lines in vitro to evaluate the cancer cell killing effect of a combination of two agents together on cell growth. Initial proliferation studies were performed to determine the IC50 values of a given compound in each cell line. The cell counts were measured by ATP quantitation using the Promega Cell Titer Glo kit and luminescence values correspond to the amount of ATP in a given well. […]
Compounds evaluated for synergy in the co-treatment phase were tested in a range which was bracketed around the IC50's.

For the compound `Cn1cnc2c(F)c(Nc3ccc(Br)cc3F)c(C(=O)NOCCO)cc21` [Binimetinib (MEK-162), Binimetinib], in the assay on OCI-AML-4 (MLL-ENL), the “Combination with EPZ-5676, OCI-AML-4 (MLL-ENL) Retest” value (shortened to “Combination … (MLL-ENL) Retest”) is reported as “Synergy (considered synergistic if the GI100 (Growth inhibition 100) value of the second compound decreased by 2-fold or more when EPZ-5676 was added as compared to the DMSO control)”. Further, the “Combination with EPZ-5676, MOLM-13 (MLL-AF9) Retest” value (from here on “Combination … (MLL-AF9) Retest”) in the assay on MOLM-13 (MLL-AF9) [1] was “Synergy (considered synergistic if the GI100 (Growth inhibition 100) value of the second compound decreased by 2-fold or more when EPZ-5676 was added as compared to the DMSO control)”. In addition, the “Combination with EPZ-5676, SKM-1 (non-MLLr) Retest” value (shortened to “Combination … (non-MLLr) Retest”) in the assay on SKM-1 (non-MLLr) was “Synergy (considered synergistic if the GI100 (Growth inhibition 100) value of the second compound decreased by 2-fold or more when EPZ-5676 was added as compared to the DMSO control)”.

As to `Cn1nccc1Nc1nccc(-c2ccn([C@H](CO)c3ccc(Cl)c(F)c3)c(=O)c2)n1` [GDC0994], the “Combination … (MLL-ENL) Retest” value in the assay on OCI-AML-4 (MLL-ENL) was “Synergy (considered synergistic if the GI100 (Growth inhibition 100) value of the second compound decreased by 2-fold or more when EPZ-5676 was added as compared to the DMSO control)”. The “Combination … (non-MLLr) Retest” value in the assay on SKM-1 (non-MLLr) is reported as “Synergy (considered synergistic if the GI100 (Growth inhibition 100) value of the second compound decreased by 2-fold or more when EPZ-5676 was added as compared to the DMSO control)”.

Consider `NC1(c2ccc(-c3nc4ccn5c(=O)[nH]nc5c4cc3-c3ccccc3)cc2)CCC1` [MK2206], for which, in the assay with MOLM-13 cells, the “MOLM-13 (summary of combination study: EPZ-5676 + 2nd compound)” value is “Synergy (considered synergistic if the IC50 value of the second compound decreased by 2-fold or more when EPZ-5676 was added as compared to the DMSO control)”. In the assay with SKM-1 cells, the “SKM-1 (summary of combination study: EPZ-5676 + 2nd compound)” value was “Synergy (considered synergistic if the IC50 value of the second compound decreased by 2-fold or more when EPZ-5676 was added as compared to the DMSO control)”. Also, the “Combination with Compound A2, MOLM13” value in the assay with MOLM-13 (MLL-AF9) [2] was “Additive (additive effect by CI equal to 1)”.

`Cn1c(Nc2ccc(C(F)(F)F)cc2)nc2cc(Oc3ccnc(-c4ncc(C(F)(F)F)[nH]4)c3)ccc21` [RAF265]: in the assay with MOLM-13 (MLL-AF9) [1], the “Combination with EPZ-5676, MOLM-13 (MLL-AF9) Primary screen” value (shortened to “Combination … (MLL-AF9) Primary screen”) is on record as “Synergy (considered synergistic if the GI100 (Growth inhibition 100) value of the second compound decreased by 2-fold or more when EPZ-5676 was added as compared to the DMSO control)”.

In the case of `Cn1cnc2c(F)c(Nc3ccc(Br)cc3Cl)c(C(=O)NOCCO)cc21` [Selumetinib (AZD6244), Selumetinib], the “Combination with EPZ-5676, OCI-AML-4 (MLL-ENL) Primary screen” value in the assay with OCI-AML-4 (MLL-ENL) (ATPLite) is given as “Synergy (considered synergistic if the GI100 (Growth inhibition 100) value of the second compound decreased by 2-fold or more when EPZ-5676 was added as compared to the DMSO control)”. Also, the “Combination … (MLL-ENL) Retest” value with OCI-AML-4 (MLL-ENL) is reported as “Synergy (considered synergistic if the GI100 (Growth inhibition 100) value of the second compound decreased by 2-fold or more when EPZ-5676 was added as compared to the DMSO control)”. In the assay with MOLM-13 (MLL-AF9) [1], the “Combination … (MLL-AF9) Retest” value was “Synergy (considered synergistic if the GI100 (Growth inhibition 100) value of the second compound decreased by 2-fold or more when EPZ-5676 was added as compared to the DMSO control)” and the “Combination … (MLL-AF9) Primary screen” value is listed as “Synergy (considered synergistic if the GI100 (Growth inhibition 100) value of the second compound decreased by 2-fold or more when EPZ-5676 was added as compared to the DMSO control)”. Besides, in the assay on SKM-1 (non-MLLr) (ATPLite), the “Combination with EPZ-5676, SKM-1 (non-MLLr) Primary screen” value was “Synergy (considered synergistic if the GI100 (Growth inhibition 100) value of the second compound decreased by 2-fold or more when EPZ-5676 was added as compared to the DMSO control)”. Besides, the “Combination … (non-MLLr) Retest” value with SKM-1 (non-MLLr) was “Synergy (considered synergistic if the GI100 (Growth inhibition 100) value of the second compound decreased by 2-fold or more when EPZ-5676 was added as compared to the DMSO control)”. For the same compound, the “MOLM-13 (summary of combination study: EPZ-5676 + 2nd compound)” value with MOLM-13 cells is “Synergy (considered synergistic if the IC50 value of the second compound decreased by 2-fold or more when EPZ-5676 was added as compared to the DMSO control)”.

Turning to `CNC(=O)c1cc(Oc2ccc(NC(=O)Nc3ccc(Cl)c(C(F)(F)F)c3)cc2)ccn1` [Sorafenib], in the assay on MOLM-13 (MLL-AF9) [1], the “Combination … (MLL-AF9) Retest” value was “Synergy (considered synergistic if the GI100 (Growth inhibition 100) value of the second compound decreased by 2-fold or more when EPZ-5676 was added as compared to the DMSO control)” and the “Combination … (MLL-AF9) Primary screen” value is “Synergy (considered synergistic if the GI100 (Growth inhibition 100) value of the second compound decreased by 2-fold or more when EPZ-5676 was added as compared to the DMSO control)”. Moreover, the “MOLM-13 (summary of combination study: EPZ-5676 + 2nd compound)” value with MOLM-13 cells is recorded as “Synergy (considered synergistic if the IC50 value of the second compound decreased by 2-fold or more when EPZ-5676 was added as compared to the DMSO control)”.

Consider `CC(C)Nc1cc(-c2c[nH]c(C(=O)N[C@H](CO)c3cccc(Cl)c3)c2)c(Cl)cn1` [Ulixertinib], for which, in the assay with OCI-AML-4 (MLL-ENL), the “Combination … (MLL-ENL) Retest” value was “Synergy (considered synergistic if the GI100 (Growth inhibition 100) value of the second compound decreased by 2-fold or more when EPZ-5676 was added as compared to the DMSO control)”. Also, in the assay on MOLM-13 (MLL-AF9) [1], the “Combination … (MLL-AF9) Retest” value was “Synergy (considered synergistic if the GI100 (Growth inhibition 100) value of the second compound decreased by 2-fold or more when EPZ-5676 was added as compared to the DMSO control)”. For the same compound, the “Combination … (non-MLLr) Retest” value with SKM-1 (non-MLLr) is on record as “Synergy (considered synergistic if the GI100 (Growth inhibition 100) value of the second compound decreased by 2-fold or more when EPZ-5676 was added as compared to the DMSO control)”.
